Measured values: BigSolDB 2.1

COc1ccc(CC(=O)O)cc1
solubility (mole fraction)
Settings | 283.15 K | 288.15 K | 293.15 K | 298.15 K | 303.15 K | 308.15 K | 313.15 K | 318.15 K | 323.15 K
in acetonitrile | 0.0423 | 0.0499 | 0.0587 | 0.0687 | 0.0803 | 0.0941 | 0.112 | 0.135 | 0.166
in anisole | 0.0323 | 0.0425 | 0.0519 | 0.0626 | 0.0737 | 0.0858 | 0.0999 | 0.118 | 0.139
in isopropanol | 0.114 | 0.142 | 0.169 | 0.198 | 0.228 | 0.258 | 0.289 | 0.323 | 0.351
in morpholine | 0.0094 | 0.0139 | 0.0185 | 0.0239 | 0.0293 | 0.0348 | 0.0404 | 0.0459 | 0.0503
in toluene | 0.0166 | 0.0209 | 0.0264 | 0.0337 | 0.0415 | 0.0522 | 0.0641 | 0.0784 | 0.0941
in water | 0.0011 | 0.002 | 0.0031 | 0.0043 | 0.0057 | 0.0069 | 0.0079 | 0.0092 | 0.0105
